Converted amounts (≈) assume the structure as drawn. Structures can show the parent of a compound that is named as a salt. Blank lines part the entries; values can stand above or below the molecule they belong to.
Columns and labels:
Type in all cases: physicochemical
[1] = Solubility at 25° C. in SGF, FaSSIF, FeSSIF (Table 1A)
Method: (§1) Several physical forms of Compound A were analyzed: the free base, tartrate salt, and tosylate salt.

[2] = Stability in aqueous solutions (Table 1A)
Method: as §1

[3] = Light stability, 1.2 MLux h (Table 1A)
Method: as §1

[4] = Bulk stability at 80° C./75% RH, 1 week (Table 1A)
Method: as §1

Polymorphism (Table 1A) = experiment: Polymorphism (Table 1A)
Method: as §1

[5] = Hygroscopicity (Table 1A)
Method: as §1

[6] = Photostability under light stress (Table 1C); conditions: RT, light dose 1.2 Lux·h*10^6
Description: The photostability of crystalline hydrate and crystalline tosylate forms of Compound A under photo, or light stress is provided in Table 1C.

[7] = Bulk solid stability under thermal stress (Table 1D); conditions: 5 days
[8] = Stability in solution/suspension at pH 1, 4.5, 7.4 under heat (Table 1E); conditions: 5 days
[9] = Solubility at various pH and in biorelevant media (Table 1B)
Description: Compound A has very limited solubility in all pHs.

Solubility at 25° C. ([1]; FaSSIF): 0.6 µg/mL
pH final of solubility test ([1]; FaSSIF): 3.54
Solubility at 25° C. ([1]; FeSSIF): 109.2 µg/mL
pH final of solubility test ([1]; FeSSIF): 4.93
Solubility at 25° C. ([1]; SGF): 53.5 µg/mL
pH final of solubility test ([1]; SGF): 1.89
Stability in aqueous solutions ([2]; pH 1.2 and pH 10.0): Significant degradation
Stability in aqueous solutions ([2]; pH 2.9 to 6.8): Relatively stable at pH
Light stability (1.2 MLux h) [3]: Significant degradation
Bulk stability (degradation) [4]: week), significant
Polymorphism (Polymorphism (Table 1A)): Potential issue
Hygroscopicity [5]: High
Structure (SMILES): Cc1ccc(NC(=O)c2ccnc(C(F)(F)F)c2)cc1-c1cc(OCCO)nc(N2CCOCC2)c1 [Compound A (tartrate salt), N-(3-(2-(2-hydroxyethoxy)-6-morpholinopyridin-4-yl)-4-methylphenyl)-2-(trifluoromethyl)isonicotinamide]

Solubility at 25° C. ([1]; FaSSIF): 1.1 µg/mL
pH final of solubility test ([1]; FaSSIF): 6.66
Solubility at 25° C. ([1]; FeSSIF): 115.8 µg/mL
pH final of solubility test ([1]; FeSSIF): 5.58
Solubility at 25° C. ([1]; SGF): 10 µg/mL
pH final of solubility test ([1]; SGF): 1.75
Light stability (1.2 MLux h) [3]: No degradation
Bulk stability (degradation) [4]: 75% RH (1 week), no
Bulk stability (physical) [4]: Physically unstable at 80° C./
Appearance/XRPD/DSC ([6]; Bulk): No change
Degradation Products [%] (HPLC) ([6]; Bulk): <1.0%
Degradation Products [%] (HPLC) ([6]; Ethanol): 97%
Appearance/XRPD/DSC ([7]; 50 ° C.): No change
Parent remaining [%] (HPLC) ([7]; 50 ° C.): >99%
Appearance/XRPD/DSC ([7]; 80 ° C.): No change
Parent remaining [%] (HPLC) ([7]; 80 ° C.): >99%
Appearance/XRPD/DSC ([7]; RT): No change
Parent remaining [%] (HPLC) ([7]; RT): >99%
Polymorphism (Polymorphism (Table 1A)): No issue encountered
Parent remaining [%] (HPLC) ([8]; pH 1, 50 ° C.): 23%
Parent remaining [%] (HPLC) ([8]; pH 1, 80 ° C.): 0.2%
Parent remaining [%] (HPLC) ([8]; pH 1, RT): 97%
Parent remaining [%] (HPLC) ([8]; pH 4.5, 50 ° C.): >99%
Parent remaining [%] (HPLC) ([8]; pH 4.5, 80 ° C.): 98.6%
Parent remaining [%] (HPLC) ([8]; pH 4.5, RT): >99%
Parent remaining [%] (HPLC) ([8]; pH 7.4, 50 ° C.): 97%
Parent remaining [%] (HPLC) ([8]; pH 7.4, 80 ° C.): 74%
Parent remaining [%] (HPLC) ([8]; pH 7.4, RT): >99%
Hygroscopicity [5]: Low
Solubility ([9]; FaSSIF V2): 0.016 mg/mL
pH final of solubility test ([9]; FaSSIF V2): 6.07
Solubility ([9]; FeSSIF V2): 0.051 mg/mL
pH final of solubility test ([9]; FeSSIF V2): 5.41
Solubility ([9]; SGF pH 2.0): 0.029 mg/mL
pH final of solubility test ([9]; SGF pH 2.0): 2.02
Solubility ([9]; Water): 5.14 mg/mL
pH final of solubility test ([9]; Water): 2.71
Solubility ([9]; pH 1): 0.106 mg/mL
pH final of solubility test ([9]; pH 1): 1.23
Solubility ([9]; pH 4.5): 0.002 mg/mL
pH final of solubility test ([9]; pH 4.5): 3.85
Solubility ([9]; pH 7.0): 0.002 mg/mL
pH final of solubility test ([9]; pH 7.0): 6.83
Structure (SMILES): Cc1ccc(NC(=O)c2ccnc(C(F)(F)F)c2)cc1-c1cc(OCCO)nc(N2CCOCC2)c1 [Compound A (tosylate salt), N-(3-(2-(2-hydroxyethoxy)-6-morpholinopyridin-4-yl)-4-methylphenyl)-2-(trifluoromethyl)isonicotinamide]

Appearance/XRPD/DSC ([6]; Bulk): No change
Degradation Products [%] (HPLC) ([6]; Bulk): <1.0%
Degradation Products [%] (HPLC) ([6]; Ethanol): 18%
Solubility ([9]; FaSSIF V2): 0.004 mg/mL
pH final of solubility test ([9]; FaSSIF V2): 6.44
Solubility ([9]; FeSSIF V2): 0.047 mg/mL
pH final of solubility test ([9]; FeSSIF V2): 5.6
Solubility ([9]; SGF pH 2.0): 0.025 mg/mL
pH final of solubility test ([9]; SGF pH 2.0): 2.19
Solubility ([9]; Water): 0.001 mg/mL
pH final of solubility test ([9]; Water): 5.99
Solubility ([9]; pH 1): 0.17 mg/mL
pH final of solubility test ([9]; pH 1): 1.23
Solubility ([9]; pH 4.5): 0.001 mg/mL
pH final of solubility test ([9]; pH 4.5): 4.0
Solubility ([9]; pH 7.0): 0.0008 mg/mL
pH final of solubility test ([9]; pH 7.0): 7.0
Structure (SMILES): Cc1ccc(NC(=O)c2ccnc(C(F)(F)F)c2)cc1-c1cc(OCCO)nc(N2CCOCC2)c1 [Compound A (hydrate), N-(3-(2-(2-hydroxyethoxy)-6-morpholinopyridin-4-yl)-4-methylphenyl)-2-(trifluoromethyl)isonicotinamide]

Solubility at 25° C. ([1]; FaSSIF): 1.4 µg/mL (≈ 2.79 µM)
pH final of solubility test ([1]; FaSSIF): 6.91
pH final of solubility test ([1]; FeSSIF): 6.08
Solubility ([1]; FeSSIF, 25 °C, thermodynamic from solid): 137 µg/mL (≈ 273 µM)
Solubility at 25° C. ([1]; SGF): 2.1 µg/mL (≈ 4.18 µM)
pH final of solubility test ([1]; SGF): 2.02
Stability in aqueous solutions ([2]; pH 1.2 and pH 10.0): Significant degradation
Stability in aqueous solutions ([2]; pH 2.9 to 6.8): Relatively stable at pH
Light stability (1.2 MLux h) [3]: Slight degradation
Bulk stability (degradation) [4]: week), slight
Polymorphism (Polymorphism (Table 1A)): Yes
Hygroscopicity [5]: Low
Solubility ([9]; FaSSIF V2): 0.035 mg/mL (≈ 69.7 µM)
pH final of solubility test ([9]; FaSSIF V2): 6.51
Solubility ([9]; FeSSIF V2): 0.576 mg/mL (≈ 1150 µM)
pH final of solubility test ([9]; FeSSIF V2): 5.82
Solubility ([9]; SGF pH 2.0): 0.699 mg/mL (≈ 1390 µM)
pH final of solubility test ([9]; SGF pH 2.0): 1.86
Solubility ([9]; Water): 0.002 mg/mL (≈ 3.98 µM)
pH final of solubility test ([9]; Water): 7.33
Solubility ([9]; pH 1): 0.4 mg/mL (≈ 796 µM)
pH final of solubility test ([9]; pH 1): 1.07
Solubility ([9]; pH 2): 0.14 mg/mL (≈ 279 µM)
pH final of solubility test ([9]; pH 2): 1.96
pH final of solubility test ([9]; pH 4.5): 4.56
Solubility ([9]; pH 4.5, aqueous buffer, thermodynamic from solid, pH 4.5, read-out: Solubility): 0.002 mg/mL (≈ 3.98 µM)
pH final of solubility test ([9]; pH 7.4): 7.33
Solubility ([9]; pH 7.4, aqueous buffer, thermodynamic from solid, pH 7.4, read-out: Solubility): 0.001 mg/mL (≈ 1.99 µM)
Structure (SMILES): Cc1ccc(NC(=O)c2ccnc(C(F)(F)F)c2)cc1-c1cc(OCCO)nc(N2CCOCC2)c1 [Compound A (free base), N-(3-(2-(2-hydroxyethoxy)-6-morpholinopyridin-4-yl)-4-methylphenyl)-2-(trifluoromethyl)isonicotinamide]
